# Laboratory results reported in paper PMC11664502, “Parahydrogen Polarization in Reverse Micelles and Application to Sensing of Protein–Ligand Binding” (Journal of the American Chemical Society, 2024).
# Target: T1, thiaminase II (TenA) (Bacillus subtilis, UniProt P25052)
# T1 sequence (P25052 1-236): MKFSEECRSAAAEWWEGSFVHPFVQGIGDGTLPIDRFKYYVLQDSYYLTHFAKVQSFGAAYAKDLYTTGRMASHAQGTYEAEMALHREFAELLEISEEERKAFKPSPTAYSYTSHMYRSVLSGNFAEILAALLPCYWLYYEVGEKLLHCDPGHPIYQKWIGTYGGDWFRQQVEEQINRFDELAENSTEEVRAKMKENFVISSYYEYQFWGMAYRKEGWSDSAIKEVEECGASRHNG
# Assay: nhPHIP hyperpolarized NMR of iridium hydride signals in reverse micelles; agrees with a titration of TenA with ABAP (KD […])
# Format: binding
structure (smiles),measurement,value
"Nc1ccnc(NCc2ccccc2)n1 [L, 4-amino-2-benzylaminopyrimidine]",Kd,39.7 ± 8.9 µM
